# Results taken from ChEMBL document CHEMBL3885881, “DrugMatrix”.
# Organism: Rattus norvegicus
# Assay: DrugMatrix - Regimen: Daily Repeat
# Type: toxicity, organism-based, Sprague-Dawley
# Parameters: regimen Daily Repeat, gender Male, age 6-8 weeks
# Conditions: in vivo, po, 364 mg/kg, route oral GAVAGE, dose level High, vehicle .5 % CMC; for ABSOLUTE BASOPHIL / ABSOLUTE EOSINOPHIL / ABSOLUTE LYMPHOCYTE / ABSOLUTE MONOCYTE / ABSOLUTE SEGMENTED NEUTROPHIL / BASOPHIL / EOSINOPHIL / ERYTHROCYTE COUNT / HEMATOCRIT / HEMOGLOBIN / LEUKOCYTE COUNT / LYMPHOCYTE / MEAN CORPUSCULAR HEMOGLOBIN / MEAN CORPUSCULAR HEMOGLOBIN CONCENTRATION / MEAN CORPUSCULAR VOLUME / MONOCYTE / NEUTROPHIL / NUCLEATED RED BLOOD CELLS / PLATELET COUNT: tissue Blood; for ALANINE AMINOTRANSFERASE / ALBUMIN / ALKALINE PHOSPHATASE / ASPARTATE AMINOTRANSFERASE / BLOOD UREA NITROGEN / CARBON DIOXIDE / CHLORIDE / CHOLESTEROL / CREATINE PHOSPHOKINASE / CREATININE / GLUCOSE / LACTATE DEHYDROGENASE / LIPASE / PHOSPHORUS / POTASSIUM / SODIUM / TOTAL BILIRUBIN / TOTAL PROTEIN / URIC ACID: tissue Plasma
smiles,measurement,setting,value
Cc1cccc(Nc2cc(Cl)nc(SCC(=O)O)n2)c1C [PIRINIXIC ACID],ABSOLUTE BASOPHIL,"72 h, time 3 day",0 CELLS/uL
same,ABSOLUTE EOSINOPHIL,"72 h, time 3 day",0 CELLS/uL
same,ABSOLUTE LYMPHOCYTE,"72 h, time 3 day",6159.33 CELLS/uL
same,ABSOLUTE MONOCYTE,"72 h, time 3 day",64.67 CELLS/uL
same,ABSOLUTE SEGMENTED NEUTROPHIL,"72 h, time 3 day",442.67 CELLS/uL
same,BASOPHIL,"72 h, time 3 day",0%
same,EOSINOPHIL,"72 h, time 3 day",0%
same,ERYTHROCYTE COUNT,"72 h, time 3 day",5.12 x10E6/uL
same,HEMATOCRIT,"72 h, time 3 day",32.3%
same,HEMOGLOBIN,"72 h, time 3 day",11.83 G/DL
same,LEUKOCYTE COUNT,"72 h, time 3 day",6.67 x10E3/uL
same,LYMPHOCYTE,"72 h, time 3 day",92.33%
same,MEAN CORPUSCULAR HEMOGLOBIN,"72 h, time 3 day",23.17 pg
same,MEAN CORPUSCULAR HEMOGLOBIN CONCENTRATION,"72 h, time 3 day",36.63 G/DL
same,MEAN CORPUSCULAR VOLUME,"72 h, time 3 day",63.17 fL
same,MONOCYTE,"72 h, time 3 day",1%
same,NEUTROPHIL,"72 h, time 3 day",6.67%
same,NUCLEATED RED BLOOD CELLS,"72 h, time 3 day",0 /100WBC
same,PLATELET COUNT,"72 h, time 3 day",1033.67 x10E3/uL
same,ALANINE AMINOTRANSFERASE,"72 h, time 3 day",53.33 u/L
same,ALBUMIN,"72 h, time 3 day",4.73 G/DL
same,ALKALINE PHOSPHATASE,"72 h, time 3 day",564 u/L
same,ASPARTATE AMINOTRANSFERASE,"72 h, time 3 day",87 u/L
same,BLOOD UREA NITROGEN,"72 h, time 3 day",12.67 mg/dL
same,CARBON DIOXIDE,"72 h, time 3 day",35.33 mmol/L
same,CHLORIDE,"72 h, time 3 day",102.33 MEQ/L
same,CHOLESTEROL,"72 h, time 3 day",49.67 mg/dL
same,CREATINE PHOSPHOKINASE,"72 h, time 3 day",282.33 u/L
same,CREATININE,"72 h, time 3 day",0.2 mg/dL
same,GLUCOSE,"72 h, time 3 day",142.33 mg/dL
same,LACTATE DEHYDROGENASE,"72 h, time 3 day",143.67 u/L
same,LIPASE,"72 h, time 3 day",8.67 u/L
same,PHOSPHORUS,"72 h, time 3 day",12.8 mg/dL
same,POTASSIUM,"72 h, time 3 day",6.58 MEQ/L
same,SODIUM,"72 h, time 3 day",147.03 MEQ/L
same,TOTAL BILIRUBIN,"72 h, time 3 day",0.1 mg/dL
same,TOTAL PROTEIN,"72 h, time 3 day",5.67 G/DL
same,URIC ACID,"72 h, time 3 day",1 mg/dL
same,ABSOLUTE BASOPHIL,"120 h, time 5 day",0 CELLS/uL
same,ABSOLUTE EOSINOPHIL,"120 h, time 5 day",0 CELLS/uL
same,ABSOLUTE LYMPHOCYTE,"120 h, time 5 day",6969 CELLS/uL
same,ABSOLUTE MONOCYTE,"120 h, time 5 day",193.33 CELLS/uL
same,ABSOLUTE SEGMENTED NEUTROPHIL,"120 h, time 5 day",904.33 CELLS/uL
same,BASOPHIL,"120 h, time 5 day",0%
same,EOSINOPHIL,"120 h, time 5 day",0%
same,ERYTHROCYTE COUNT,"120 h, time 5 day",5.24 x10E6/uL
same,HEMATOCRIT,"120 h, time 5 day",32.1%
same,HEMOGLOBIN,"120 h, time 5 day",12.47 G/DL
same,LEUKOCYTE COUNT,"120 h, time 5 day",8.07 x10E3/uL
same,LYMPHOCYTE,"120 h, time 5 day",87.33%
same,MEAN CORPUSCULAR HEMOGLOBIN,"120 h, time 5 day",23.8 pg
same,MEAN CORPUSCULAR HEMOGLOBIN CONCENTRATION,"120 h, time 5 day",38.8 G/DL
same,MEAN CORPUSCULAR VOLUME,"120 h, time 5 day",61.27 fL
same,MONOCYTE,"120 h, time 5 day",2.33%
same,NEUTROPHIL,"120 h, time 5 day",10.33%
same,NUCLEATED RED BLOOD CELLS,"120 h, time 5 day",0 /100WBC
same,PLATELET COUNT,"120 h, time 5 day",1189 x10E3/uL
same,ALANINE AMINOTRANSFERASE,"120 h, time 5 day",57 u/L
same,ALBUMIN,"120 h, time 5 day",5 G/DL
same,ALKALINE PHOSPHATASE,"120 h, time 5 day",591 u/L
same,ASPARTATE AMINOTRANSFERASE,"120 h, time 5 day",173 u/L
same,BLOOD UREA NITROGEN,"120 h, time 5 day",15.33 mg/dL
same,CARBON DIOXIDE,"120 h, time 5 day",35 mmol/L
same,CHLORIDE,"120 h, time 5 day",101.67 MEQ/L
same,CHOLESTEROL,"120 h, time 5 day",56.67 mg/dL
same,CREATINE PHOSPHOKINASE,"120 h, time 5 day",895.67 u/L
same,CREATININE,"120 h, time 5 day",0.17 mg/dL
same,GLUCOSE,"120 h, time 5 day",139.67 mg/dL
same,LACTATE DEHYDROGENASE,"120 h, time 5 day",272.67 u/L
same,LIPASE,"120 h, time 5 day",9 u/L
same,PHOSPHORUS,"120 h, time 5 day",11.73 mg/dL
same,POTASSIUM,"120 h, time 5 day",6.36 MEQ/L
same,SODIUM,"120 h, time 5 day",146.87 MEQ/L
same,TOTAL BILIRUBIN,"120 h, time 5 day",0.0667 mg/dL
same,TOTAL PROTEIN,"120 h, time 5 day",6.1 G/DL
same,URIC ACID,"120 h, time 5 day",1.1 mg/dL
